Key:
p38alpha = target: T1, p38alpha (Homo sapiens, UniProt Q16539); experiment: P38alpha enzyme inhibition assay (Alphascreen kinase activity assay); type: biochemical; conditions: IC50 classes; 2 hours preincubation at 25° C., 250 μM ATP; read-out: p38α inhibition
T1 construct: purchased Invitrogen PV3304
Description: P38alpha Enzyme Inhibition Assay
The inhibitory activity of compounds was determined using an Alphascreen® (Perkin Elmer) based kinase activity assay. Kinase reactions consisted of 25 mM HEPES pH 7.5, 10 mM MgCl2, 100 μM Na3VO4, 2 mM DTT, 0.05 mg/ml Tween […] (Invitrogen, PV3304), 1% DMSO and 0.3 μg/ml ATF-2 fusion protein (New England Biolabs, 9224). Compounds were incubated under these conditions for 2 hours, at 25° C., prior to the initiation of the kinase activity by the addition of the 250 μM ATP. Reaction volumes were 20 uL. After 1 hr at 25° C. reactions were stopped by the adding 10 uL of 25 mM HEPES pH 7.5 containing 62.5 mM EDTA, 0.05% Triton X-100, 10% BSA and 0.83 ng/uL anti-phospho-ATF2 antibody (Abcam, ab28812). Detection was performed by measuring luminescence following the addition of Alphascreen Donor beads (Perkin Elmer 6765300) and Protein A Alphascreen Acceptor beads (Perkin Elmer 6760137), both at a final concentration of 20 ug/ml. IC50 values were determined from concentration-response curves.

[1] = test system: Peripheral Blood Mononuclear Cells (PBMCs); experiment: LPS-stimulated PBMC TNFα release assay; type: cell-based; conditions: IC50 classes; human PBMC, LPS 10 ng/ml, 18 h; read-out: LPS-stimulated PBMC TNFα release inhibition
Description: 1-10 nM ‘+’; • <1 nM ‘++’ LPS-Stimulated PBMC TNFα Release Assay
Peripheral Blood Mononuclear Cells (PBMCs) were isolated from healthy human volunteer blood using a standard density gradient centrifugation technique. Citrated blood was placed onto Histopaque™ and centrifuged. The PBMCs were removed from the density gradient interface and washed in phosphate buffered saline (PBS). The PBMCs were suspended in RPMI 1640 medium (without serum), dispensed into a 96-well plate and incubated at 37° C. for 3 h in a humidified incubator. After incubation, the medium was replaced (with medium containing 1% foetal bovine serum) and the plate incubated at 37° C., for 1 h, in the presence of test compound or the appropriate vehicle. LPS (10 ng/ml), or an appropriate vehicle control, was then added to the cells and the plate returned to the incubator for 18 h. Cell-free supernatants were removed and assayed for TNFα levels using MSD plates on the Sector Imager 6000 (MesoScale).
A dose response curve to each test compound was performed and the effect of compound in each experiment was expressed as a percentage inhibition of the control TNFα release. Dose response curves were plotted and compound potency (IC50) was determined. Compounds were tested in at least three separate experiments.

BEAS-2B cells = experiment: TNFα-stimulated BEAS-2B IL-8 release assay; type: cell-based; conditions: Homo sapiens, IC50 classes, TNF-α 10 ng/ml, 18 h, read-out: TNFα-stimulated BEAS-2B IL-8 release inhibition
Description: TNFα-Stimulated BEAS-2B IL-8 Release Assay
Human bronchial epithelial cell line BEAS-2B was purchased from Sigma (St. Louis, Mo.). BEAS-2B cells were cultured in Bronchial Epithelial cell Growth Medium (BEGM), prepared by supplementing Bronchial Epithelial Basal Medium with SingleQuotes™ (Lonza, Switzerland), which contains retinoic acid, epidermal growth factor, epinephrine, transferrin, triiodothyronin, insulin, hydrocortisone, antimicrobial agents, and bovine pituitary extract. In addition, BEGM medium was supplemented with 2 mM glutamine, 100 U penicillin and 100 μg/ml streptomycin (Life Technologies), in an atmosphere of 95% air and 5% CO2 at 37° C.
BEAS-2B were seeded in 48-well plates at the density of 3×10^4 cells per well, grown to approximately 80-90% confluence. Cells were pre-incubated with p38 inhibitors for 1 hour and then stimulated with TNF-α (10 ng/ml) for 18 h at 37° C. with 5% CO2. Subsequently, supernatants were collected and used for measuring IL-8 levels using a paired antibody quantitative ELISA kit purchased from Life Technologies (detection limit: […]). All the treatments were performed at least in quadruplicate.
A concentration-response curve to each test compound was performed and the effect of compound in each experiment was expressed as a percentage inhibition of the control IL-8 release. Compound potency (IC50) was calculated by the analysis of the sigmoidal dose-response curve (variable slope) elaborated by Graph Pad PRISM4 program.

T1 sequence (Q16539 whole entry): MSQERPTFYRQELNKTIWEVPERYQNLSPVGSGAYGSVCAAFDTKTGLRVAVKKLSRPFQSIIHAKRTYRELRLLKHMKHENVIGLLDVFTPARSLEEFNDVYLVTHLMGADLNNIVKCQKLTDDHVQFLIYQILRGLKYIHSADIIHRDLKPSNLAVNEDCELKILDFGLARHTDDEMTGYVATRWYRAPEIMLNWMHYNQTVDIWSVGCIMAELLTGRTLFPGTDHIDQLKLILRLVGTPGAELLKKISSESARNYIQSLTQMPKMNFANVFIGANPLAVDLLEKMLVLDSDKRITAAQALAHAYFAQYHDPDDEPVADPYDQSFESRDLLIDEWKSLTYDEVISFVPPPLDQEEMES

SMILES	IC50 (p38alpha) [nM]	IC50 [1] [nM]	IC50 (BEAS-2B cells) [nM]
CN1CCC[C@@]1(C)c1nnc2ccc(O[C@@H]3CC[C@H](NC(=O)Nc4cc(N)cc(C(C)(C)C)c4)c4ccccc43)cn12 [Example 35]	< 1	1 to 5	< 0.3
CN1CCC[C@H]1c1nnc2ccc(O[C@@H]3CC[C@H](NC(=O)Nc4cc(NS(=O)(=O)C5CC5)cc(C(C)(C)C)c4)c4ccccc43)cn12 [Example 36, Cyclopropanesulfonic acid [3-tert-butyl-5-(3-{(1S,4R)-4-[3-((S)-1-methyl-pyrrolidin-2-yl)-[1,2,4]triazolo[4,3-a]pyridin-6-yloxy]-1,2,3,4-tetrahydro-naphthalen-1-yl}-ureido)-phenyl]-amide]	< 1	1 to 5	0.3 to 1
CN1CCC[C@@]1(C)c1nnc2ccc(O[C@@H]3CC[C@H](NC(=O)Nc4cc(NS(=O)(=O)C5CC5)cc(C(C)(C)C)c4)c4ccccc43)cn12 [Example 37, Cyclopropanesulfonic acid [3-tert-butyl-5-(3-{(1S,4R)-4-[3-((S)-1,2-dimethyl-pyrrolidin-2-yl)-[1,2,4]triazolo[4,3-a]pyridin-6-yloxy]-1,2,3,4-tetrahydro-naphthalen-1-yl}-ureido)-phenyl]-amide]	1 to 10	< 1	< 0.3
CNS(=O)(=O)c1cc(NC(=O)N[C@H]2CC[C@@H](Oc3ccc4nnc([C@@H]5CCCN5C)n4c3)c3ccccc32)cc(C(C)(C)C)c1 [Example 38, 3-tert-Butyl-N-methyl-5-(3-{(1S,4R)-4-[3-((S)-1-methyl-pyrrolidin-2-yl)-[1,2,4]triazolo[4,3-a]pyridin-6-yloxy]-1,2,3,4-tetrahydro-naphthalen-1-yl}-ureido)-benzenesulfonamide]	< 1	1 to 5	0.3 to 1
CNS(=O)(=O)c1cc(NC(=O)N[C@H]2CC[C@@H](Oc3ccc4nnc([C@]5(C)CCCN5C)n4c3)c3ccccc32)cc(C(C)(C)C)c1 [Example 39, 3-tert-Butyl-5-(3-{(1S,4R)-4-[3-((S)-1,2-dimethyl-pyrrolidin-2-yl)-[1,2,4]triazolo[4,3-a]pyridin-6-yloxy]-1,2,3,4-tetrahydro-naphthalen-1-yl}-ureido)-N-methyl-benzenesulfonamide]	< 1	< 1	< 0.3
CN1CCC[C@@]1(C)c1nnc2ccc(O[C@@H]3CC[C@H](NC(=O)Nc4cc(CS(C)(=O)=O)cc(C(C)(C)C)c4)c4ccccc43)cn12 [Example 42, 1-(3-tert-Butyl-5-methanesulfonylmethyl-phenyl)-3-{(1S,4R)-4-[3-((S)-1,2-dimethyl-pyrrolidin-2-yl)-[1,2,4]triazolo[4,3-a]pyridin-6-yloxy]-1,2,3,4-tetrahydro-naphthalen-1-yl}-urea]	< 1	< 1	< 0.3
CC(=O)OCc1cc(NC(=O)N[C@H]2CC[C@@H](Oc3ccc4nnc([C@@H]5CCCN5C)n4c3)c3ccccc32)cc(C(C)(C)C)c1 [Example 43, Acetic acid 3-tert-butyl-5-(3-{(1S,4R)-4-[3-((S)-1-methyl-pyrrolidin-2-yl)-[1,2,4]triazolo[4,3-a]pyridin-6-yloxy]-1,2,3,4-tetrahydro-naphthalen-1-yl}-ureido)-benzyl ester]	< 1	1 to 5	< 0.3
CC(=O)OCc1cc(NC(=O)N[C@H]2CC[C@@H](Oc3ccc4nnc([C@]5(C)CCCN5C)n4c3)c3ccccc32)cc(C(C)(C)C)c1 [Example 44, Acetic acid 3-tert-butyl-5-(3-{(1S,4R)-4-[3-((S)-1,2-dimethyl-pyrrolidin-2-yl)-[1,2,4]triazolo[4,3-a]pyridin-6-yloxy]-1,2,3,4-tetrahydro-naphthalen-1-yl}-ureido)-benzyl ester]	< 1	< 1	< 0.3

Second part, led by results:

IC50 (p38alpha) [nM]	SMILES	IC50 [1] [nM]	IC50 (BEAS-2B cells) [nM]
< 1	CN(C)C(C)(C)c1nnc2ccc(O[C@@H]3CC[C@H](NC(=O)Nc4cc(NS(C)(=O)=O)cc(C(C)(C)C)c4)c4ccccc43)cn12 [Example 19, N-[3-tert-Butyl-5-(3-{(1S,4R)-4-[3-(1-dimethylamino-1-methyl-ethyl)-[1,2,4]triazolo[4,3-a]pyridin-6-yloxy]-1,2,3,4-tetrahydro-naphthalen-1-yl}-ureido)-phenyl]-methanesulfonamide]	< 1	< 0.3
< 1	CN1CCC[C@]1(C)c1nnc2ccc(O[C@@H]3CC[C@H](NC(=O)Nc4cc(NS(C)(=O)=O)cc(C(C)(C)C)c4)c4ccccc43)cn12 [Example 20, N-[3-tert-Butyl-5-(3-{(1S,4R)-4-[3((R)-1,2-dimethyl-pyrrolidin-2-yl)-[1,2,4]triazolo[4,3-a]pyridin-6-yloxy]-1,2,3,4-tetrahydro-naphthalen-1-yl}-ureido)-phenyl]-methanesulfonamide]	< 1	< 0.3
< 1	CN1CCC[C@H]1c1nnc2ccc(O[C@@H]3CC[C@H](NC(=O)Nc4cc(NS(C)(=O)=O)cc(C(C)(C)C)c4)c4ccccc43)cn12 [Example 21]	1 to 5	0.3 to 1
< 1	CN1CCC[C@@]1(C)c1nnc2ccc(O[C@@H]3CC[C@H](NC(=O)Nc4cc(NS(C)(=O)=O)cc(C(C)(C)C)c4)c4ccccc43)cn12 [Example 24, N-[3-tert-Butyl-5-(3-{(1S,4R)-4-[3-((S)-1,2-dimethyl-pyrrolidin-2-yl)-[1,2,4]triazolo[4,3-a]pyridin-6-yloxy]-1,2,3,4-tetrahydro-naphthalen-1-yl}-ureido)-phenyl]-methanesulfonamide]	< 1	< 0.3
< 1	CN1CCOC[C@H]1c1nnc2ccc(O[C@@H]3CC[C@H](NC(=O)Nc4cc(NS(C)(=O)=O)cc(C(C)(C)C)c4)c4ccccc43)cn12 [Example 25, N-[3-tert-Butyl-5-(3-{(1S,4R)-4-[3-((R)-4-methyl-morpholin-3-yl)-[1,2,4]triazolo[4,3-a]pyridin-6-yloxy]-1,2,3,4-tetrahydro-naphthalenyl}-ureido)-phenyl]-methanesulfonamide]	> 5	> 1
< 1	CCN1CCC[C@@]1(C)c1nnc2ccc(O[C@@H]3CC[C@H](NC(=O)Nc4cc(NS(C)(=O)=O)cc(C(C)(C)C)c4)c4ccccc43)cn12 [Example 27, N-[3-tert-Butyl-5-(3-{(1S,4R)-4-[3-((S)-1-ethyl-2-methyl-pyrrolidin-2-yl)-[1,2,4]triazolo[4,3-a]pyridin-6-yloxy]-1,2,3,4-tetrahydro-naphthalen-1-yl}-ureido)-phenyl]-methanesulfonamide]	< 1	< 0.3
< 1	CC(C)(C)c1cc(NC(=O)N[C@H]2CC[C@@H](Oc3ccc4nnc([C@@H]5CCCN5CCO)n4c3)c3ccccc32)cc(NS(C)(=O)=O)c1 [Example 31, N-{3-tert-Butyl-5-[3-((1S,4R)-4-{3-[(S)-1-(2-hydroxy-ethyl)-pyrrolidin-2-yl]-[1,2,4]triazolo[4,3-a]pyridin-6-yloxy}-1,2,3,4-tetrahydro-naphthalen-1-yl)-ureido]-phenyl}-methanesulfonamide]	> 5	> 1
< 1	CN1CCC[C@@]1(CO)c1nnc2ccc(O[C@@H]3CC[C@H](NC(=O)Nc4cc(NS(C)(=O)=O)cc(C(C)(C)C)c4)c4ccccc43)cn12 [Example 33]	< 1	0.3 to 1

— US10100050B2 (CHIESI FARMACEUTICI S.P.A., priority 2015, dated 2018)
